According to patent US10597388B2, “Pyridazinone herbicides” (FMC CORPORATION, priority 2014, dated 2020):

How the values were obtained:
Assay in all cases: Test C greenhouse herbicide test, pre- and postemergence
Format in all cases: in vivo
corn (Zea mays) = test system: corn (Zea mays)
Method in brief: (§1)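 Percent-control ratings (0 none, 100 complete) came from visual comparison with controls held alongside in the greenhouse for 13–15 d. Treatments covered soil application at sowing and foliar application to young plants 2–18 cm tall.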

[1] = test system: johnsongrass (Sorghum halepense)
Method in brief: as §1

[2] = test system: crabgrass, large (large crabgrass, Digitaria sanguinalis)
Method in brief: as §1

[3] = test system: ryegrass, Italian (Italian ryegrass, Lolium multiflorum)
Method in brief: as §1

[4] = test system: oilseed rape (Brassica napus)
Method in brief: as §1

[5] = test system: pigweed (Amaranthus retroflexus)
Method in brief: as §1

[6] = test system: lambsquarters (Chenopodium album)
Method in brief: as §1

[7] = test system: morningglory (Ipomoea coccinea)
Method in brief: as §1

[8] = test system: nutsedge, yellow (yellow nutsedge, Cyperus esculentus)
Method in brief: as §1

[9] = test system: waterhemp (common waterhemp, Amaranthus rudis)
Method in brief: as §1

[10] = test system: foxtail, giant (giant foxtail, Setaria faberii)
Method in brief: as §1

[11] = test system: galium (catchweed bedstraw, Galium aparine)
Method in brief: as §1

soybean (Glycine max) = test system: soybean (Glycine max)
Method in brief: as §1

[12] = test system: wheat (winter wheat, Triticum aestivum)
Method in brief: as §1

[13] = test system: blackgrass (Alopecurus myosuroides)
Method in brief: as §1

[14] = test system: velvetleaf (Abutilon theophrasti)
Method in brief: as §1

[15] = Postemergence, 31 g ai/ha, scale 0 to 100 (0 no effect, 100 complete control)
[16] = Postemergence, 62 g ai/ha, 0 to 100 scale (0 no effect, 100 complete control)
[17] = Postemergence, 250 g ai/ha, scale 0 to 100, 0 no effect, 100 complete control, 13 to 15 d
[18] = Preemergence, 31 g ai/ha, scale 0 to 100, 0 is no effect, 100 is complete control
[19] = Preemergence, 62 g ai/ha, scale 0 to 100, 0 is no effect, 100 is complete control
[20] = Preemergence, 125 g ai/ha, scale 0 to 100, 0 is no effect, 100 is complete control
[21] = Preemergence, 250 g ai/ha, scale 0 to 100 (0 no effect, 100 complete control)
[22] = postemergence, 125 g ai/ha, scale 0 to 100, 0 no effect, 100 complete control
[23] = Postemergence, 31 g ai/ha, 0 to 100 scale (0 no effect, 100 complete control)
[24] = Postemergence, 125 g ai/ha, scale 0 to 100, 0 is no effect, 100 is complete control
[25] = postemergence, 62 g ai/ha, scale 0 to 100, 0 no effect, 100 complete control

CC(=O)Oc1c(Br)nn(C)c(=O)c1-c1c(C)ccc2ccccc12 [Compound 129]
Plant response rating, Corn (corn (Zea mays); [15]): 0
Corn plant response rating (corn (Zea mays); [16]): 20
Plant response rating, Corn (corn (Zea mays); [17]): 30
Plant response rating, Corn (corn (Zea mays); [18]): 0
Plant response rating, Corn (corn (Zea mays); [19]): 5
Plant response rating, Corn (corn (Zea mays); [20]): 15
Corn plant response rating (corn (Zea mays); [21]): 40
Corn plant response rating (corn (Zea mays); [22]): 30
Plant response rating, Johnsongrass [1, 15]: 10
Johnsongrass plant response rating [1, 16]: 15
Plant response rating, Johnsongrass [1, 17]: 25
Plant response rating, Johnsongrass [1, 18]: 5
Plant response rating, Johnsongrass [1, 19]: 5
Plant response rating, Johnsongrass [1, 20]: 10
Johnsongrass plant response rating [1, 21]: 25
Johnsongrass plant response rating [1, 22]: 15
Plant response rating, Crabgrass, Large [2, 15]: 20
Crabgrass, Large plant response rating [2, 16]: 30
Plant response rating, Crabgrass, Large [2, 17]: 60
Plant response rating, Crabgrass, Large [2, 18]: 5
Plant response rating, Crabgrass, Large [2, 19]: 25
Plant response rating, Crabgrass, Large [2, 20]: 75
Crabgrass, Large plant response rating [2, 21]: 85
Crabgrass, Large plant response rating [2, 22]: 35
Plant response rating, Ryegrass, Italian [3, 15]: 70
Ryegrass, Italian plant response rating [3, 16]: 90
Plant response rating, Ryegrass, Italian [3, 17]: 95
Plant response rating, Ryegrass, Italian [3, 18]: 90
Plant response rating, Ryegrass, Italian [3, 19]: 90
Plant response rating, Ryegrass, Italian [3, 20]: 95
Ryegrass, Italian plant response rating [3, 21]: 95
Ryegrass, Italian plant response rating [3, 22]: 95
Plant response rating, Oilseed Rape [4, 15]: 0
Oilseed Rape plant response rating [4, 16]: 0
Plant response rating, Oilseed Rape [4, 17]: 5
Plant response rating, Oilseed Rape [4, 18]: 5
Plant response rating, Oilseed Rape [4, 19]: 50
Plant response rating, Oilseed Rape [4, 20]: 90
Oilseed Rape plant response rating [4, 21]: 90
Oilseed Rape plant response rating [4, 22]: 5
Plant response rating, Pigweed [5, 15]: 95
Pigweed plant response rating [5, 16]: 95
Plant response rating, Pigweed [5, 17]: 98
Plant response rating, Pigweed [5, 18]: 100
Plant response rating, Pigweed [5, 19]: 98
Plant response rating, Pigweed [5, 20]: 98
Pigweed plant response rating [5, 21]: 100
Pigweed plant response rating [5, 22]: 98
Plant response rating, Lambsquarters [6, 15]: 95
Lambsquarters plant response rating [6, 16]: 95
Plant response rating, Lambsquarters [6, 17]: 98
Plant response rating, Lambsquarters [6, 18]: 85
Plant response rating, Lambsquarters [6, 19]: 80
Plant response rating, Lambsquarters [6, 20]: 85
Lambsquarters plant response rating [6, 21]: 90
Lambsquarters plant response rating [6, 22]: 95
Plant response rating, Morningglory [7, 15]: 98
Morningglory plant response rating [7, 16]: 100
Plant response rating, Morningglory [7, 17]: 100
Plant response rating, Morningglory [7, 18]: 85
Plant response rating, Morningglory [7, 19]: 90
Plant response rating, Morningglory [7, 20]: 90
Morningglory plant response rating [7, 21]: 98
Morningglory plant response rating [7, 22]: 100
Plant response rating, Nutsedge, Yellow [8, 15]: 60
Nutsedge, Yellow plant response rating [8, 16]: 75
Plant response rating, Nutsedge, Yellow [8, 17]: 95
Plant response rating, Nutsedge, Yellow [8, 18]: 55
Plant response rating, Nutsedge, Yellow [8, 19]: 85
Plant response rating, Nutsedge, Yellow [8, 20]: 90
Nutsedge, Yellow plant response rating [8, 21]: 95
Nutsedge, Yellow plant response rating [8, 22]: 85
Plant response rating, Waterhemp [9, 15]: 75
Waterhemp plant response rating [9, 16]: 70
Plant response rating, Waterhemp [9, 17]: 98
Plant response rating, Waterhemp [9, 18]: 90
Plant response rating, Waterhemp [9, 19]: 95
Plant response rating, Waterhemp [9, 20]: 100
Waterhemp plant response rating [9, 21]: 100
Waterhemp plant response rating [9, 22]: 85
Plant response rating, Foxtail, Giant [10, 15]: 60
Foxtail, Giant plant response rating [10, 16]: 75
Plant response rating, Foxtail, Giant [10, 17]: 95
Plant response rating, Foxtail, Giant [10, 18]: 85
Plant response rating, Foxtail, Giant [10, 19]: 90
Plant response rating, Foxtail, Giant [10, 20]: 95
Foxtail, Giant plant response rating [10, 21]: 98
Foxtail, Giant plant response rating [10, 22]: 85
Plant response rating, Galium [11, 15]: 95
Galium plant response rating [11, 16]: 100
Plant response rating, Galium [11, 17]: 100
Plant response rating, Galium [11, 18]: 95
Plant response rating, Galium [11, 19]: 98
Plant response rating, Galium [11, 20]: 100
Galium plant response rating [11, 21]: 98
Galium plant response rating [11, 22]: 100
Plant response rating, Soybean (soybean (Glycine max); [15]): 0
Soybean plant response rating (soybean (Glycine max); [16]): 10
Plant response rating, Soybean (soybean (Glycine max); [17]): 25
Plant response rating, Soybean (soybean (Glycine max); [18]): 0
Plant response rating, Soybean (soybean (Glycine max); [19]): 0
Plant response rating, Soybean (soybean (Glycine max); [20]): 5
Soybean plant response rating (soybean (Glycine max); [21]): 20
Soybean plant response rating (soybean (Glycine max); [22]): 20
Plant response rating, Wheat [12, 15]: 10
Wheat plant response rating [12, 16]: 35
Plant response rating, Wheat [12, 17]: 55
Plant response rating, Wheat [12, 18]: 35
Plant response rating, Wheat [12, 19]: 50
Plant response rating, Wheat [12, 20]: 55
Wheat plant response rating [12, 21]: 85
Wheat plant response rating [12, 22]: 40
Plant response rating, Blackgrass [13, 15]: 35
Blackgrass plant response rating [13, 16]: 40
Plant response rating, Blackgrass [13, 17]: 80
Plant response rating, Blackgrass [13, 18]: 5
Plant response rating, Blackgrass [13, 19]: 30
Plant response rating, Blackgrass [13, 20]: 70
Blackgrass plant response rating [13, 21]: 80
Blackgrass plant response rating [13, 22]: 60
Plant response rating, Velvetleaf [14, 15]: 85
Velvetleaf plant response rating [14, 16]: 95
Plant response rating, Velvetleaf [14, 17]: 100
Plant response rating, Velvetleaf [14, 18]: 70
Plant response rating, Velvetleaf [14, 19]: 85
Plant response rating, Velvetleaf [14, 20]: 98
Velvetleaf plant response rating [14, 21]: 98
Velvetleaf plant response rating [14, 22]: 95

COc1nn(C)c(=O)c(-c2c(C)sc3ccccc23)c1O [Compound 33]
Corn plant response rating (corn (Zea mays); [23]): 0
Plant response rating, Corn (corn (Zea mays); [24]): 5
Plant response rating, Corn (corn (Zea mays); [17]): 20
Corn plant response rating (corn (Zea mays); [25]): 5
Johnsongrass plant response rating [1, 23]: 0
Plant response rating, Johnsongrass [1, 24]: 5
Plant response rating, Johnsongrass [1, 17]: 40
Johnsongrass plant response rating [1, 25]: 5
Crabgrass, Large plant response rating [2, 23]: 10
Plant response rating, Crabgrass, Large [2, 24]: 20
Plant response rating, Crabgrass, Large [2, 17]: 25
Crabgrass, Large plant response rating [2, 25]: 20
Ryegrass, Italian plant response rating [3, 23]: 30
Plant response rating, Ryegrass, Italian [3, 24]: 70
Plant response rating, Ryegrass, Italian [3, 17]: 75
Ryegrass, Italian plant response rating [3, 25]: 45
Oilseed Rape plant response rating [4, 23]: 40
Plant response rating, Oilseed Rape [4, 24]: 30
Plant response rating, Oilseed Rape [4, 17]: 50
Oilseed Rape plant response rating [4, 25]: 55
Pigweed plant response rating [5, 23]: 30
Plant response rating, Pigweed [5, 24]: 65
Plant response rating, Pigweed [5, 17]: 80
Pigweed plant response rating [5, 25]: 50
Lambsquarters plant response rating [6, 23]: 90
Plant response rating, Lambsquarters [6, 24]: 98
Plant response rating, Lambsquarters [6, 17]: 100
Lambsquarters plant response rating [6, 25]: 95
Morningglory plant response rating [7, 23]: 85
Plant response rating, Morningglory [7, 24]: 95
Plant response rating, Morningglory [7, 17]: 98
Morningglory plant response rating [7, 25]: 95
Nutsedge, Yellow plant response rating [8, 23]: 5
Plant response rating, Nutsedge, Yellow [8, 24]: 45
Plant response rating, Nutsedge, Yellow [8, 17]: 65
Nutsedge, Yellow plant response rating [8, 25]: 15
Waterhemp plant response rating [9, 23]: 25
Plant response rating, Waterhemp [9, 24]: 65
Plant response rating, Waterhemp [9, 17]: 75
Waterhemp plant response rating [9, 25]: 30
Foxtail, Giant plant response rating [10, 23]: 20
Plant response rating, Foxtail, Giant [10, 24]: 60
Plant response rating, Foxtail, Giant [10, 17]: 70
Foxtail, Giant plant response rating [10, 25]: 40
Galium plant response rating [11, 23]: 90
Plant response rating, Galium [11, 24]: 95
Plant response rating, Galium [11, 17]: 95
Galium plant response rating [11, 25]: 90
Soybean plant response rating (soybean (Glycine max); [23]): 0
Plant response rating, Soybean (soybean (Glycine max); [24]): 0
Plant response rating, Soybean (soybean (Glycine max); [17]): 0
Soybean plant response rating (soybean (Glycine max); [25]): 0
Wheat plant response rating [12, 23]: 0
Plant response rating, Wheat [12, 24]: 0
Plant response rating, Wheat [12, 17]: 0
Wheat plant response rating [12, 25]: 0
Blackgrass plant response rating [13, 23]: 0
Plant response rating, Blackgrass [13, 24]: 5
Plant response rating, Blackgrass [13, 17]: 10
Blackgrass plant response rating [13, 25]: 0
Velvetleaf plant response rating [14, 23]: 10
Plant response rating, Velvetleaf [14, 24]: 75
Plant response rating, Velvetleaf [14, 17]: 85
Velvetleaf plant response rating [14, 25]: 60
